Values quoted from earlier work, collected in patent US20220096467A1, “COMBINATION OF SELECTIVE ALPHA-ADRENERGIC RECEPTOR AGONIST OR AN ANTICHOLINERGIC AGENT AND LIPOIC ACID AND USES THEREOF” (Cellix Bio Private Limited, priority 2019, published 2022).

Test system: eyes of patients who had open angle glaucoma
Conditions: 150 mg of ALA per day, controls received only topical medical therapy

SMILES: O=C(O)CCCCC1CCSS1 (stereo not drawn) [ALA, alpha lipoic acid]
- Eyes in the study with enhanced color visual fields and visual sensitivity versus the controls: 45-47%
